Experimental data taken from patent publication US6858648B2, “Laetispicine and laetispicine analogues, methods of use and preparation” (Fudan University, priority 2002, dated 2005).

How the values were obtained:
mouse [1] = assay: Mouse acetic acid squirming method; type: in vivo; settings: for Squirming X ± SE: dose 20 mg/kg, 1 hour before 0.2 ml 1% acetic acid into abdominal cavity, squirmings counted over 10 minutes, male mice; for inflammation and pain relieving effect compared with aspirin: 20 mg/kg each, mouse acetic acid squirming
Excerpt: The pain and inflammation relieving effect of Laetispicine has been studied by the mouse acetic acid squirming method. In this study, 30 male mice were selected; each of them weighed 20 grams. These mice were divided randomly into 3 groups: Laetispicine group (10 mice), aspirin group (10 mice), and control group (10 mice). Laetispicine of 20 milligram/kilogram body weight in vehicle solution was given to each of the ten mice in Laetispicine group. For a positive control, aspirin of 20 milligram/kilogram body weight in vehicle solution was given to each of the ten mice in aspirin group. Vehicle solution only was given to ten mice in control group (negative control group). One hour later, each mouse was given 0.2 milliliter of 1% acetic acid solution by injection to its abdominal cavity. After the mouse squirmed first time, every squirming of each of the mouse was counted in a period of 10 minutes.

mouse [2] = assay: Mouse forced swimming experiment; type: in vivo; settings: for Motionless Time (sec.) X ± SE: 1 hour after dosing, recorded over 4 minutes after 2 minutes adaptation, 10 mice per group; for anti-depression effect compared with Fluoxetine (Prozac): mouse forced swimming, relative to Fluoxetine
Excerpt: Mouse forced swimming experiment is by far the best animal model to screen anti-depression drugs. The experiment is designed to create a despaired situation for a mouse by confining the mouse in a container filled with water. Mouse in water will swim to safety. When the mouse cannot find a way out after it tried in the water in the container, it despaired of swimming. There is psychological difference of different mice in the situation. A calm mouse is still swimming and trying to find a way out of the container, while a despaired mouse swims relatively less (moves less). A depressed mouse despairs easily. The more depressed the mouse, the severer the despair.
In this experiment, sixty mice were divided into 6 groups (10 mice in each group). (Referring to Table 1 and FIG. 2) Each mouse in experiment group 1 (Laetispicine 1) was given Laetispicine 50 milligram/kilogram body weight, each mouse in experiment group 2 (Laetispicine 2) was given Laetispicine 20 milligram/kilogram body weight, each mouse in experiment group 3 (Laetispicine 3) was given Laetispicine 10 milligram/kilogram body weight and each mouse in experiment group 4 (Laetispicine 4) was given Laetispicine 5 milligram/kilogram body weight. Fluoxetine (Prozac) was given 50 milligram/kilogram body weight to each mouse of positive control group (Fluoxetine), and placebo was given to each mouse of negative control group.
After receiving the drugs (or placebo) 1 hour later, mice were put into a glass container with a long and narrow opening. The dimension of the container is 30 cm height, filled with water to 15 cm deep.

SMILES	Squirming X ± SE (mouse [1])	Motionless Time (sec.) X ± SE (mouse [2]; dose 50 mg/kg)	effect on mouse depression (in words) (mouse [2]; Table 1 and FIG. 2, 5-50 mg/kg)	Motionless Time (sec.) X ± SE (mouse [2]; dose 5 mg/kg)	Motionless Time (sec.) X ± SE (mouse [2]; dose 10 mg/kg)	Motionless Time (sec.) X ± SE (mouse [2]; dose 20 mg/kg)	anti-depression effect compared with Fluoxetine (Prozac) (mouse [2])	anti-depression effect compared with Fluoxetine (Prozac) (mouse [2]; listed as Lactispicine)	inflammation and pain relieving effect compared with aspirin (mouse [1])	inflammation and pain relieving effect compared with aspirin (mouse [1]; listed as Lactispicine)
CC(=O)Oc1ccccc1C(=O)O [Aspirin, reference compound]	16.8 ± 3.43	–	–	–	–	–	–	–	–	–
CNCCC(Oc1ccc(C(F)(F)F)cc1)c1ccccc1 (stereo not drawn) [Fluoxetine, reference compound]	–	113.44 ± 10.10 s	–	–	–	–	–	–	–	–
CC(C)CNC(=O)/C=C/C=C/CCC/C=C/Cc1ccc2c(c1)OCO2 [Laetispicine, N-isobutyl-11-(3,4-methylendioxyphenyl)-2E,4E,9E-undecatrienamide]	16.7 ± 4.92	17.67 ± 5.33 s	significantly reduced the mouse depression	158.78 ± 5.13 s	131.0 ± 8.86 s	50.11 ± 12.69 s	five times effective than that of Prozac	5 times	equivalent to that of aspirin	equivalent to the effect of Aspirin
